Measurements published in patent US20230118911A1, “PROTEOLYSIS TARGETING CHIMERA (PROTAC) FOR DEGRADATION OF AURORA A-KINASE” (Julius-Maximilians-Universitaet Wuerzburg, priority 2020, published 2023).

Legend:
[1] = target: T1, Aurora-A (Homo sapiens, UniProt O14965); assay: Immunoblot of endogenous Aurora-A in MV4-11 cells after a single dose of degrader; format: cell-based; design: resulting in degradation of endogenous Aurora-A; endogenous in cells; host or cells: MV4-11
T1 sequence (O14965 1-403): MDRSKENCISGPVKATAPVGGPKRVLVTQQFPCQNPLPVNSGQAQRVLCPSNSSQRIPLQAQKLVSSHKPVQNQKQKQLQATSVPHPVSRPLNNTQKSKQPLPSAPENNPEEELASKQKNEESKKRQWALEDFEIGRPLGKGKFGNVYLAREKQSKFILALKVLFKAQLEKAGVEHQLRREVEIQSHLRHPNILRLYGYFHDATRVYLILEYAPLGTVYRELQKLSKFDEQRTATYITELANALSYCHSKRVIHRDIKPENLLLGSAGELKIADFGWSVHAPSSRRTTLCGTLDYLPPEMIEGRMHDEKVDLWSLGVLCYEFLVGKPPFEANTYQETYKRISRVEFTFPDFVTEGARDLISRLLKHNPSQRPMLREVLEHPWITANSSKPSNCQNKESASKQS
Description: (§1) Then, the cells were lysed in RIPA lysis buffer (50 mM HEPES pH 7.9, 140 mM NaCl, 1 mM EDTA, 1% Triton X-100, 0.1% SDS, 0.1% sodium deoxycholate) containing protease and phosphatase inhibitors (Sigma) and incubated for 20 minutes at 4° C. in head-over-tail. Lysates were cleared by centrifugation. Protein quantification was done using BCA assay and equal amounts of proteins were separated by BisTris-PAGE and transferred to PVDF membranes (Millipore). The membranes were blocked with 5% (w/v) nonfat dry milk dissolved in TBS-T (20 mM Tris/HCl, pH 7.5, 150 mM NaCl, and 0.1% (v/v) Tween 20) at RT for 1 hour and then incubated with the primary antibody overnight at 4° C. Visualization was done with HRP-labeled secondary antibodies and detected using Chemiluminescent HRP substrate (Millipore) in LAS3000 or LAS4000 Mini (Fuji). The signal was quantified using ImageJ (version 1.52q) or Image Studio Lite (LI-COR Biosciences, Version 5.2.5). […] Error bars represent standard deviations of four biological replicate experiments.

[2] = test system: MV4-11 cells; assay: alamarBlue cell viability assay; format: cell-based; conditions: Homo sapiens, 1 μM (refreshed every 24 h), 72 hours, read-out: viable cells compared to control cells
Description: The alamarBlue assay (Thermo Fisher Scientific) was performed according to manufacturer's instruction using HS Cell Viability Reagent. The fluorescence was measured in Tecan Infinite-200 using a fluorescence excitation wavelength of 550 and an emission of 600 nm.

[3] = test system: MV4-11 cells; assay: Annexin-PI FACS apoptosis assay in MV4-11 cells; format: cell-based, human; conditions: 0.5 μM, 72 hours
Description: (§2) For Annexin-PI FACS, the medium in which the cells were cultured was combined with the cells.
(§3) The cells were washed once with ice-cold PBS, resuspended in 100 μl Annexin V Binding buffer (10 mM HEPES pH 7.4, 140 mM NaCl, 2.5 mM CaCl2)) with 2 μl of Annexin V/Pacific Blue dye and incubated for 15 minutes in the dark at room temperature. 400 μl Annexin V Binding buffer with propidium iodide (18.5 μM) was added and the samples were stored cold and in the dark until analysis.

[4] = test system: IMR5 cells; assay: Annexin-PI FACS apoptosis assay in IMR5 cells with or without Aurora-A T217D expression; conditions: 0.5 μM, 72 hours, doxycycline-induced Aurora-A T217D vs EtOH control
Description: as §2, §3
Aurora-AT^217D is a functional mutant of Aurora-A. IMR5 cells express Aurora-A^T217D upon incubation with doxycycline (Dox) but not upon incubation with ethanol (control-EtOH).

[5] = target: T1, Aurora-A; assay: Immunoblot of endogenous Aurora-A, MV4-11 cells treated with various concentrations for 6 hours; format: cell-based; design: resulting in degradation of endogenous Aurora-A; endogenous in cells; host or cells: MV4-11
Description: as §1
Afterwards, cells were lysed in RIPA lysis buffer (50 mM HEPES pH 7.9, 140 mM NaCl, 1 mM EDTA, 1% Triton X-100, 0.1% SDS, 0.1% sodium deoxycholate) containing protease and phosphatase inhibitors (Sigma) and incubated for 20 minutes at 4° C. in head-over-tail. Further processing of resulting cell lysates and immunoblotting was performed as described above.

`COc1cc(Nc2ncc3c(n2)-c2ccc(Cl)cc2C(c2c(F)cccc2OC)=NC3)ccc1C(=O)NCCOCCOCCC(=O)N[C@H](C(=O)N1C[C@H](O)C[C@H]1C(=O)NCc1ccc(-c2scnc2C)cc1)C(C)(C)C` [JB160, VHL-PEG2-alisertib] was tested, and the Aurora-A steady-state levels ([1]; single dose, VHL-ligand-based degraders) was “neither of the VHL-ligand-based degraders JB160 and JB161 reduced Aurora-A steady-state levels”.
`COc1cc(Nc2ncc3c(n2)-c2ccc(Cl)cc2C(c2c(F)cccc2OC)=NC3)ccc1C(=O)NCCOCCOCCNC(=O)COc1cccc2c1C(=O)N(C1CCC(=O)NC1=O)C2=O` (stereo not drawn) [JB170, thalidomide-PEG2-alisertib] was tested, and the viability at 1 µM [2] was 32%, the Annexin-positive cells [3] was 56% and the “effect of Aurora-A T217D expression on induced apoptosis” value [4] was “completely reverted the induction of apoptosis”. For the same molecule, the Aurora-A levels ([5]; 10 nM) was “significantly decreased”, the Aurora-A degradation ([5]; 100 nM and 1 μM) was “almost complete degradation” and the “Hook effect on Aurora-A depleting activity” value ([5]; high concentrations) was “reversal of the Aurora-A depleting activity was observed”.
With `COc1cc(Nc2ncc3c(n2)-c2ccc(Cl)cc2C(c2c(F)cccc2OC)=NC3)ccc1C(=O)O` [alisertib, reference compound] the Aurora-A levels ([5]; 1 μM) was “did not decrease Aurora-A levels, but induced a significant increase”.
With thalidomide-PEG3-alisertib [JB158] the “reduction of Aurora-A protein level” value ([1]; single dose (0.1 μM, 1 μM), compared to control cells) was 62%.
